Data as given in US11939314B2, “Quinolin-2-one derivatives” (MERCK PATENT GMBH, priority 2016, dated 2024).

Key:
c-Kit(V654A) = target: T1, c-Kit(V654A) (Homo sapiens, UniProt P10721, V654A); test: c-Kit(V654A) assay; format: biochemical; details: recombinant human c-Kit aa 544-end, 200 μM ATP, 1.4E-06 means 1.4×10^−6, read-out: Inhibition (IC50) of c-KIT (V654A)
T1 construct: amino acids 544-end containing the V654A mutation; GST (N)
Outline: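 Radiometric filter-binding read-out: substrate 33P incorporation counted by scintillation after P30 filtermat washes in 75 mM phosphoric acid and methanol. Enzyme: N-GST recombinant human c-Kit aa 544-end carrying V654A.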

PDGFRalpha(V561D) = target: T2, PDGFRalpha(V561D) (Homo sapiens, UniProt P16234, V561D); test: PDGFRalpha(V561D) assay; format: biochemical; details: recombinant human PDGFRalpha aa 550-end, 200 μM ATP, 1.4E-06 means 1.4×10^−6, read-out: Inhibition (IC50) of PDGFRα (V561D)
T2 construct: recombinant human PDGFRalpha, amino acids 550end containing the V561 D mutation; 6His (N)
Protocol: PDGFRalpha(V561D) (N-terminal 6His-tagged, recombinant human PDGFRalpha, amino acids 550end containing the V561 D mutation) is incubated with 8 mM MOPS pH 7.0, 0.2 mM EDTA, 250 μM GGMEDIYEFMGGKKK, 10 mM MgAcetate and [gamma-33P-ATP] (specific activity approx. 500 cpm/pmol, concentration 200 μM). The reaction is initiated by the addition of the MgATP mix. After incubation for 40 minutes at room temperature, the reaction is stopped by the addition of 3% phosphoric acid solution. 10 μL of the reaction is then spotted onto a P30 filtermat and washed three times for 5 minutes in 75 mM phosphoric acid and once in methanol prior to drying and scintillation counting.

T1 sequence (P10721 544-976 V654A): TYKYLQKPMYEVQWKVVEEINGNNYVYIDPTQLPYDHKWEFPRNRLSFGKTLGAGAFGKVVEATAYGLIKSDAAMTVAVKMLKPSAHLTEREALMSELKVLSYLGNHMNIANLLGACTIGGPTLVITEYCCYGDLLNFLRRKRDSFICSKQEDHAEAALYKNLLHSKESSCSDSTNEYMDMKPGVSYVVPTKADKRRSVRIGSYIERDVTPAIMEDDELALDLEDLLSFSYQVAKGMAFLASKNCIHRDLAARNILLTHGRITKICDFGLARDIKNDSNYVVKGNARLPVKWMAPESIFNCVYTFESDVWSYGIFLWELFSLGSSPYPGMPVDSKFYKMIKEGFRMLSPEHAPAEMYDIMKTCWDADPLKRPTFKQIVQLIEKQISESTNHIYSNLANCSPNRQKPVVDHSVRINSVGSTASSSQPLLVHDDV
T2 sequence (P16234 550-1089 V561D): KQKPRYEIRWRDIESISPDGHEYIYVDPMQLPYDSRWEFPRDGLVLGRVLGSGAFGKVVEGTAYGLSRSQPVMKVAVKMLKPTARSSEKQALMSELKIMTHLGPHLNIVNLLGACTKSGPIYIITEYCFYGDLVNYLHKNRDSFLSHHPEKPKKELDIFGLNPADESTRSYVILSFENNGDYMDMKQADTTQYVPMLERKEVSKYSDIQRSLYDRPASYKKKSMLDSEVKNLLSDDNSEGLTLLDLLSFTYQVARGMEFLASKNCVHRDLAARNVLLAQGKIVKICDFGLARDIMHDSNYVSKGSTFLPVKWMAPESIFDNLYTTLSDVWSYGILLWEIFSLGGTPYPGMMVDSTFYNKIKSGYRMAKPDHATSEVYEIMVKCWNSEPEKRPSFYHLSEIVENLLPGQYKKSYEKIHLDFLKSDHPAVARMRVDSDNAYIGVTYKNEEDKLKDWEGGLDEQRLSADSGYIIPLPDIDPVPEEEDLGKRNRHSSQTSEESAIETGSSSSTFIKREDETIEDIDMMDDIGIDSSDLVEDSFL

Row | Structure (SMILES) | IC50 (c-Kit(V654A)) [nM] | IC50 (PDGFRalpha(V561D)) [nM]
1 | CN1CCN(c2ncc(-n3cc(-c4cc5ccccc5[nH]c4=O)nn3)cn2)CC1 [A66, 3-{1-[2-(4-methyl-piperazin-1-yl)-pyrimidin-5-yl]-1H-[1,2,3]triazol-4-yl}-1H-quinolin-2-one] | 640 | 190
2 | CN1CCN(C(=O)c2ccc(-n3cc(-c4cc5cc(F)cnc5[nH]c4=O)nn3)cc2)CC1 [A67, 6-fluoro-3-{1-[4-(4-methyl-piperazine-1-carbonyl)-phenyl]-1H-[1,2,3]triazol-4-yl}-1H-[1,8]naphthyridin-2-one] | 24 | 4
3 | CN1CCN(C(=O)c2ccc(-n3cc(-c4cc5ccccc5[nH]c4=O)cn3)cc2)CC1 [A74, 3-{1-[4-(4-methyl-piperazine-1-carbonyl)-phenyl]-1H-pyrazol-4-yl}-1H-quinolin-2-one] | 8 | 6
4 | O=C(c1cccc(-n2cc(-c3cc4ccccc4[nH]c3=O)nn2)c1)N1CCOCC1 [A76, 3-{1-[3-(morpholine-4-carbonyl)-phenyl]-1H-[1,2,3]triazol-4-yl}-1H-quinolin-2-one] | 49 | 30
5 | O=C(c1cccc(-n2cc(-c3cc4ccccc4[nH]c3=O)nn2)c1)N1CCNCC1 [A78, 3-{1-[3-(piperazine-1-carbonyl)-phenyl]-1H-[1,2,3]triazol-4-yl}-1H-quinolin-2-one] | 17 | 31
6 | O=C(c1ccc(-n2cc(-c3cc4ccc(Cl)cc4[nH]c3=O)nn2)cc1)N1CCOCC1 [A82, 7-chloro-3-{1-[4-(morpholine-4-carbonyl)-phenyl]-1H-[1,2,3]triazol-4-yl}-1H-quinolin-2-one] | 14 | 3
7 | Cc1ccc2cc(-c3cn(-c4ccc(C(=O)N5CCOCC5)cc4)nn3)c(=O)[nH]c2c1 [A84, 7-methyl-3-{1-[4-(morpholine-4-carbonyl)-phenyl]-1H-[1,2,3]triazol-4-yl}-1H-quinolin-2-one] | 48 | 5
8 | O=C(c1ccc(-n2cc(-c3cc4ncccc4[nH]c3=O)nn2)cc1)N1CCOCC1 [A85, 3-{1-[4-(morpholine-4-carbonyl)-phenyl]-1H-[1,2,3]triazol-4-yl}-1H-[1,5]naphthyridin-2-one] | 1300 | 1700
9 | COCCCN1CCN(C(=O)c2ccc(-n3cc(-c4cc5cc(F)ccc5[nH]c4=O)nn3)cc2)CC1 [A86, 6-fluoro-3-(1-{4-[4-(3-methoxy-propyl)-piperazine-1-carbonyl]-phenyl}-1H-[1,2,3]triazol-4-yl)-1H-quinolin-2-one] | 11 | 2
10 | COCCCN1CCN(C(=O)c2ccc(-n3cc(-c4cc5cc(F)cnc5[nH]c4=O)nn3)cc2)CC1 [A88, 6-fluoro-3-(1-{4-[4-(3-methoxy-propyl)-piperazine-1-carbonyl]-phenyl}-1H-[1,2,3]triazol-4-yl)-1H-[1,8]naphthyridin-2-one] | 90 | 6
11 | COCCCN1CCN(C(=O)c2ccc(-n3cc(-c4cc5cccnc5[nH]c4=O)nn3)cc2)CC1 [A89, 3-(1-{4-[4-(3-methoxy-propyl)-piperazine-1-carbonyl]-phenyl}-1H-[1,2,3]triazol-4-yl)-1H-[1,8]naphthyridin-2-one] | 36 | 8
12 | O=C(c1ccc(-n2cc(-c3cc4c(F)cc(F)cc4[nH]c3=O)nn2)cc1)N1CCOCC1 [A90, 5,7-difluoro-3-{1-[4-(morpholine-4-carbonyl)-phenyl]-1H-[1,2,3]triazol-4-yl}-1H-quinolin-2-one] | 20 | 29
13 | O=C(c1ccc(-n2cc(-c3cc4ccc(Br)cc4[nH]c3=O)nn2)cc1)N1CCOCC1 [A91, 7-bromo-3-{1-[4-(morpholine-4-carbonyl)-phenyl]-1H-[1,2,3]triazol-4-yl}-1H-quinolin-2-one] | 19 | 8.2

The remaining compounds from weak to strong by IC50 (c-Kit(V654A)), led by results:

Row | IC50 (c-Kit(V654A)) [nM] | IC50 (PDGFRalpha(V561D)) [nM] | Structure (SMILES)
14 | 1200 | 150 | Cc1ccc2cc(-c3cn(-c4ccc(C(=O)N5CCN(C)CC5)cc4)nn3)c(=O)[nH]c2n1 [A65, 7-methyl-3-{1-[4-(4-methyl-piperazine-1-carbonyl)-phenyl]-1H-[1,2,3]triazol-4-yl}-1H-[1,8]naphthyridin-2-one]
15 | 470 | 110 | O=C(O)c1ccc(-n2cc(-c3cc4cccnc4[nH]c3=O)nn2)cc1 [A77, 4-[4-(2-Oxo-1,2-dihydro-[1,8]naphthyridin-3-yl)-[1,2,3]triazol-1-yl]-benzoic acid]
16 | 120 | 44 | C=C(C)c1ccc(-n2cc(-c3cc4ccccc4[nH]c3=O)nn2)cc1 [A80, 3-[1-(4-isopropenyl-phenyl)-1H-[1,2,3]triazol-4-yl]-1H-quinolin-2-one]
17 | 48 | 18 | O=c1[nH]c2ccccc2cc1-c1cnn(-c2ccccc2)c1 [A75, 3-(1-phenyl-1H-pyrazol-4-yl)-1H-quinolin-2-one]
18 | 33 | 31 | CN1CCN(C(=O)c2cccc(-n3cc(-c4cc5ccccc5[nH]c4=O)nn3)c2)CC1 [A79, 3-{1-[3-(4-methyl-piperazine-1-carbonyl)-phenyl]-1H-[1,2,3]triazol-4-yl}-1H-quinolin-2-one]
19 | 28 | 7 | CN1CCN(c2ccc(-n3cc(-c4cc5ccccc5[nH]c4=O)nn3)cc2)C(=O)C1 [A68, 3-{1-[4-(4-methyl-2-oxo-piperazin-1-yl)-phenyl]-1H-[1,2,3]triazol-4-yl}-1H-quinolin-2-one]
20 | 25 | 12 | COCCCN1CCN(C(=O)c2ccc(-n3cc(-c4cc5c(F)cccc5[nH]c4=O)nn3)cc2)CC1 [A87, 5-fluoro-3-(1-{4-[4-(3-methoxy-propyl)-piperazine-1-carbonyl]-phenyl}-1H-[1,2,3]triazol-4-yl)-1H-quinolin-2-one]
21 | 17 | 6 | CC(C)(c1ccc(-n2cc(-c3cc4ccccc4[nH]c3=O)nn2)cc1)S(C)(=O)=O [A81, 3-{1-[4-(1-methanesulfonyl-1-methyl-ethyl)-phenyl]-1H-[1,2,3]triazol-4-yl}-1H-quinolin-2-one]
22 | 14 | 10 | CN1CCCN(c2ccc(-n3cc(-c4cc5ccccc5[nH]c4=O)nn3)cc2)CC1 [A69, 3-{1-[4-(4-methyl-[1,4]diazepan-1-yl)-phenyl]-1H-[1,2,3]triazol-4-yl}-1H-quinolin-2-one]
23 | 14 | 5 | CN1CCN(c2ccc(-n3cc(-c4cc5cc(F)ccc5[nH]c4=O)nn3)cc2)CC1 [A70, 6-fluoro-3-{1-[4-(4-methyl-piperazin-1-yl)-phenyl]-1H-[1,2,3]triazol-4-yl}-1H-quinolin-2-one]
24 | 11 | 4 | CN1CCN(CCOc2ccc(-n3cc(-c4cc5ccccc5[nH]c4=O)nn3)cc2)CC1 [A72, 3-(1-{4-[2-(4-methyl-piperazin-1-yl)-ethoxy]-phenyl}-1H-[1,2,3]triazol-4-yl)-1H-quinolin-2-one]
25 | 10 | 3 | O=C(c1ccc(-n2cc(-c3cc4ccc(F)cc4[nH]c3=O)nn2)cc1)N1CCOCC1 [A83, 7-fluoro-3-{1-[4-(morpholine-4-carbonyl)-phenyl]-1H-[1,2,3]triazol-4-yl}-1H-quinolin-2-one]
26 | 8 | 4 | CN1CCN(c2ccc(-n3cc(-c4cc5cc(F)ccc5[nH]c4=O)nn3)cc2)C(=O)C1 [A71, 6-fluoro-3-{1-[4-(4-methyl-2-oxo-piperazin-1-yl)-phenyl]-1H-[1,2,3]triazol-4-yl}-1H-quinolin-2-one]
